Data: patent US4226863A, “7-Methoxy cephalosporins” (Sumitomo Chemical Company, Limited, priority 1975, dated 1980)
In brackets after ≈: the same amount, converted by molar mass.

Experiments:
Format in all cases: cell-based
Escherichia coli NIHJ = test: antimicrobial activity, minimum inhibitory concentration, Escherichia coli NIHJ
Proteus vulgaris HX 19 = test: antimicrobial activity, minimum inhibitory concentration, Proteus vulgaris HX 19; conditions: HX19
Description: (§1) The antimicrobial activities of the compounds prepared in the previous Examples were determined in a usual manner and the minimum inhibitory concentrations (in terms of μg/ml) are set forth in the Table below.

[1] = test system: Pseudomonas aeruginosa IID 5142; test: antimicrobial activity, minimum inhibitory concentration, Pseudomonas aeruginosa IID 5142; conditions: IID5142
Description: as §1

Serratia No. 115 = test: antimicrobial activity, minimum inhibitory concentration, Serratia No. 115
Description: as §1

[2] = test system: Enterobacter aerogenes No. 101; test: antimicrobial activity, minimum inhibitory concentration, Enterobacter aerogenes No. 101; conditions: Klebsiella aerogenes
Description: as §1

Row | Compound | MIC (Escherichia coli NIHJ) [µg/mL] | MIC (Proteus vulgaris HX 19) [µg/mL] | MIC [1] [µg/mL] | MIC (Serratia No. 115) [µg/mL] | MIC [2] [µg/mL]
1 | CO[C@@]1(NC(=O)[C@H](NC(=O)c2cnc3cccnc3c2O)c2ccccc2)C(=O)N2C(C(=O)O)=C(COC(C)=O)CS[C@@H]21 [Example 1, 3-Acetoxymethyl-7α-methoxy-7β-[D-2-(4-hydroxy-1,5-naphthyridine-3-carbonamido)-2-phenylacetamido]-3-cephem-4-carboxylic Acid] | 3.13 (≈ 5.15 µM) | 0.39 (≈ 0.642 µM) | 1.56 (≈ 2.57 µM) | 50 (≈ 82.3 µM) | 6.25 (≈ 10.3 µM)
2 | CO[C@@]1(NC(=O)[C@H](NC(=O)c2cnc3cccnc3c2O)c2ccc(O)cc2)C(=O)N2C(C(=O)O)=C(CSc3nnnn3C)CS[C@@H]21 [Example 2, 3-[(1-Methyltetrazol-5-yl)thiomethyl]-7α-methoxy-7β-[D-2-(4-hydroxy-1,5-naphthyridine-3-carbonamido)-2-(p-hydroxyphenyl)acetamido]-3-cephem-4-carboxylic Acid] | 0.78 (≈ 1.15 µM) | 0.2 (≈ 0.294 µM) | 1.56 (≈ 2.3 µM) | 3.13 (≈ 4.6 µM) | 3.13 (≈ 4.6 µM)
3 | CO[C@@]1(NC(=O)[C@H](NC(=O)c2cnc3cccnc3c2O)c2ccc(O)cc2)C(=O)N2C(C(=O)O)=C(CSc3cnn[nH]3)CS[C@@H]21 [Example 3, 3-[(Triazol-5-yl)thiomethyl]-7α-methoxy-7β-[D-2-(4-hydroxy-1,5-naphthyridine-3-carbonamido)-2-(p-hydroxyphenyl)acetamido]-3-cephem-4-carboxylic Acid] | 3.13 (≈ 4.71 µM) | 0.78 (≈ 1.17 µM) | 3.13 (≈ 4.71 µM) | 25 (≈ 37.6 µM) | 6.25 (≈ 9.4 µM)
4 | CO[C@@]1(NC(=O)[C@H](NC(=O)c2cnc3cccnc3c2O)c2ccccc2)C(=O)N2C(C(=O)[O-])=C(C[n+]3ccccc3)CS[C@@H]21 [Example 4, 3-Pyridiniummethyl-7α-methoxy-7β-[D-2-(4-hydroxy-1,5-naphthyridine-3-carbonamido)-2-phenylacetamido]-3-cephem-4-carboxylate] | 3.13 (≈ 4.99 µM) | 0.78 (≈ 1.24 µM) | 6.25 (≈ 9.97 µM) | 25 (≈ 39.9 µM) | 12.5 (≈ 19.9 µM)
5 | CO[C@@]1(NC(=O)[C@H](NC(=O)c2cnc3cccnc3c2O)c2ccc(O)cc2)C(=O)N2C(C(=O)O)=C(COC(N)=O)CS[C@@H]21 [Example 5, 3-Carbamoyloxymethyl-7α-methoxy-7β-[D-2-(4-hydroxy-1,5-naphthyridine-3-carbonamido)-2-(p-hydroxyphenyl)-acetamido]-3-cephem-4-caboxylic Acid] | 3.13 (≈ 5.01 µM) | 0.39 (≈ 0.624 µM) | 3.13 (≈ 5.01 µM) | 50 (≈ 80.1 µM) | 6.25 (≈ 10 µM)
6 | CO[C@@]1(NC(=O)C(NC(=O)c2cnc3cncnc3c2O)c2ccccc2)C(=O)N2C(C(=O)O)=C(CSc3nnnn3C)CS[C@@H]21 (some centres unmarked) [Example 7] | 6.25 (≈ 9.4 µM) | 0.78 (≈ 1.17 µM) | 6.25 (≈ 9.4 µM) | 12.5 (≈ 18.8 µM) | 6.25 (≈ 9.4 µM)
7 | CO[C@@]1(NC(=O)C(NC(=O)c2cnccc2O)c2ccccc2)C(=O)N2C(C(=O)O)=C(COC(C)=O)CS[C@@H]21 (some centres unmarked) [Example 8] | 12.5 (≈ 22.5 µM) | 0.39 (≈ 0.701 µM) | 6.25 (≈ 11.2 µM) | 100 (≈ 180 µM) | 25 (≈ 44.9 µM)
8 | CO[C@@]1(NC(=O)C(NC(=O)c2cnccc2O)c2ccc(O)cc2)C(=O)N2C(C(=O)O)=C(CSc3nnnn3C)CS[C@@H]21 (some centres unmarked) [Example 9] | 12.5 (≈ 19.9 µM) | 0.39 (≈ 0.62 µM) | 6.25 (≈ 9.94 µM) | 50 (≈ 79.5 µM) | 12.5 (≈ 19.9 µM)
9 | CO[C@@]1(NC(=O)C(NC(=O)c2cncnc2O)c2ccc(O)cc2)C(=O)N2C(C(=O)O)=C(CSc3nnnn3C)CS[C@@H]21 (some centres unmarked) [Example 10] | 12.5 (≈ 19.9 µM) | 0.39 (≈ 0.619 µM) | 12.5 (≈ 19.9 µM) | 50 (≈ 79.4 µM) | 12.5 (≈ 19.9 µM)
10 | CO[C@@]1(NC(=O)C(NC(=O)c2cncnc2O)c2ccccc2)C(=O)N2C(C(=O)O)=C(COC(N)=O)CS[C@@H]21 (some centres unmarked) [Example 11] | 12.5 (≈ 22.4 µM) | 0.78 (≈ 1.4 µM) | 12.5 (≈ 22.4 µM) | 100 (≈ 179 µM) | 50 (≈ 89.5 µM)
11 | CO[C@@]1(NC(=O)C(NC(=O)c2ccnnc2O)c2ccc(O)cc2)C(=O)N2C(C(=O)O)=C(CSc3nnnn3C)CS[C@@H]21 (some centres unmarked) [Example 12] | 12.5 (≈ 19.9 µM) | 0.78 (≈ 1.24 µM) | 25 (≈ 39.7 µM) | 100 (≈ 159 µM) | 25 (≈ 39.7 µM)
12 | CO[C@@]1(NC(=O)C(NC(=O)c2ccnnc2O)c2ccc(O)cc2)C(=O)N2C(C(=O)O)=C(CSc3nnc(C)s3)CS[C@@H]21 (some centres unmarked) [Example 13] | 12.5 (≈ 19.4 µM) | 0.78 (≈ 1.21 µM) | 25 (≈ 38.7 µM) | 100 (≈ 155 µM) | 25 (≈ 38.7 µM)
13 | CO[C@@]1(NC(=O)C(NC(=O)c2ccnnc2O)c2ccc(O)cc2)C(=O)N2C(C(=O)O)=C(CSc3n[nH]c(=S)s3)CS[C@@H]21 (some centres unmarked) [Example 14] | 12.5 (≈ 18.8 µM) | 1.56 (≈ 2.35 µM) | 25 (≈ 37.7 µM) | 100 (≈ 151 µM) | 25 (≈ 37.7 µM)
14 | CO[C@@]1(NC(=O)C(NC(=O)c2cnc3nc(C)ccc3c2O)c2ccc(O)cc2)C(=O)N2C(C(=O)O)=C(COC(C)=O)CS[C@@H]21 (some centres unmarked) [Example 15] | 12.5 (≈ 19.6 µM) | 1.56 (≈ 2.45 µM) | 12.5 (≈ 19.6 µM) | 100 (≈ 157 µM) | 50 (≈ 78.4 µM)
15 | CO[C@@]1(NC(=O)C(NC(=O)c2cnccc2O)c2ccccc2)C(=O)N2C(C(=O)[O-])=C(C[n+]3ccccc3)CS[C@@H]21 (some centres unmarked) [Example 16] | 12.5 (≈ 21.7 µM) | 1.56 (≈ 2.71 µM) | 6.25 (≈ 10.9 µM) | 50 (≈ 86.9 µM) | 25 (≈ 43.4 µM)
16 | COc1cnc2c(O)c(C(=O)NC(C(=O)N[C@]3(OC)C(=O)N4C(C(=O)O)=C(CSc5nnnn5C)CS[C@@H]43)c3ccc(O)cc3)cnc2n1 (some centres unmarked) [Example 17] | 3.13 (≈ 4.4 µM) | 0.2 (≈ 0.281 µM) | 3.13 (≈ 4.4 µM) | 6.25 (≈ 8.79 µM) | 6.25 (≈ 8.79 µM)
